Earlier results, collected in US20120178114A1, “METHODS AND DEVICES FOR DETECTING THROMBIN GENERATION” (SUBC, INC., priority 2007, published 2012).

Molecular target: thrombin (Homo sapiens, UniProt P00734)
Conditions: BAEE as thrombin substrate

Km: 100 µM
kcat: 50 s⁻¹
SMILES: CCOC(=O)[C@H](CCCNC(=N)N)NC(=O)c1ccccc1 [BAEE, benzoylarginine ethyl ester]
